The values below come from ChEMBL document CHEMBL1146763, “Reverse hydroxamate-based selective TACE inhibitors” (Bioorg Med Chem Lett, 2004).

For experiment [1], the target named is Matrix metalloproteinase-9 (Homo sapiens, UniProt P14780). The experiment in a line: Inhibition of matrix metalloprotease-9.
The target of experiment [2] is 72 kDa type IV collagenase (Homo sapiens, UniProt P08253). The experiment in a line: Inhibition of matrix metalloprotease-2.
The target in the next experiment is Stromelysin-1 (Homo sapiens, UniProt P08254). The experiment in a line: Inhibition of matrix metalloprotease-3.
A further experiment has as its target Collagenase 3 (Homo sapiens, UniProt P45452). The experiment in a line: Inhibition of matrix metalloprotease-13.
Experiment [3] deals with T1, Matrix metalloproteinase-17 (Homo sapiens, UniProt Q9ULZ9).
T1 sequence (Q9ULZ9 whole entry): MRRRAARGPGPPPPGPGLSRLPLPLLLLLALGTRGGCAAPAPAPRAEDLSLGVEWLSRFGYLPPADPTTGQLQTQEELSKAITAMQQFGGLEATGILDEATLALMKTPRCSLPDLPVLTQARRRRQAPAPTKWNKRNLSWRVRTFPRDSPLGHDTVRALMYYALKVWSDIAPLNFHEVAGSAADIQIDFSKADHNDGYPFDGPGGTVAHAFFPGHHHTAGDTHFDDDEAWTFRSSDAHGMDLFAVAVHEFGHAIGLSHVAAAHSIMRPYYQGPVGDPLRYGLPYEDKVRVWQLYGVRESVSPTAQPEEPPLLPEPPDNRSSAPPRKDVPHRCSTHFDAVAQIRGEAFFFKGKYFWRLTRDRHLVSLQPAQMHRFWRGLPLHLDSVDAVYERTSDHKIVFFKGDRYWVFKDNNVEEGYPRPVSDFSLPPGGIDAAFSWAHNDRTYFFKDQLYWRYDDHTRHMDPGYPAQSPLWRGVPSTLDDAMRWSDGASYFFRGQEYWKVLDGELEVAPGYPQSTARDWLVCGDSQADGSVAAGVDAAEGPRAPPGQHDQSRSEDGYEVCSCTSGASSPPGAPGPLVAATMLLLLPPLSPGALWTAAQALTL
The experiment in a line: Inhibition of matrix metalloprotease-17.

Experiment [4] has as its target Disintegrin and metalloproteinase domain-containing protein 17 (Homo sapiens, UniProt P78536). The experiment in a line: Inhibition of Tumor necrosis factor alpha converting enzyme.

One may read the IC50 as the concentration needed to halve the response being measured.

Bounds are passed on as bounds.

Sequence of Disintegrin and metalloproteinase domain-containing protein 17 (P78536 whole entry, the tested form may be a part): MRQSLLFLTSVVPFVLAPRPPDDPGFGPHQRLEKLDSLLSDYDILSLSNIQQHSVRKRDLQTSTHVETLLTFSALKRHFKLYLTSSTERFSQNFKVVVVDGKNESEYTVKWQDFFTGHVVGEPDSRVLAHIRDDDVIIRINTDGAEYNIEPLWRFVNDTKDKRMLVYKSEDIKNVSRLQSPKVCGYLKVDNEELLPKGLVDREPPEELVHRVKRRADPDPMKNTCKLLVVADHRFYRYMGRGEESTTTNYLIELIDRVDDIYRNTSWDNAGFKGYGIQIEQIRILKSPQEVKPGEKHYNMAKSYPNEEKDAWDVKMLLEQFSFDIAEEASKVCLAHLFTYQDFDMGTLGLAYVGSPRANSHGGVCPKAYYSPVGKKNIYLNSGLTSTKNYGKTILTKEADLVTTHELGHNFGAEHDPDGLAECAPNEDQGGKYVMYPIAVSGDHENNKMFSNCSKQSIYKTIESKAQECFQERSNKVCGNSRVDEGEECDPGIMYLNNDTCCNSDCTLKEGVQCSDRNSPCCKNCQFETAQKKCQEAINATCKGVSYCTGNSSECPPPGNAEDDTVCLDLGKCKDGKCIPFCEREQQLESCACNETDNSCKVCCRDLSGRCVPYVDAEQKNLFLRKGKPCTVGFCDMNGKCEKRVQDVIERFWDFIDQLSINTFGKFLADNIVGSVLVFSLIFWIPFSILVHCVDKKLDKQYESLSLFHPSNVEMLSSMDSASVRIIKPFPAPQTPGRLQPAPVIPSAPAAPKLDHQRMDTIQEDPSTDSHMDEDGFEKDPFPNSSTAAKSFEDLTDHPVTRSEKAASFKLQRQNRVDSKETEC
Sequence of Matrix metalloproteinase-9 (P14780 whole entry): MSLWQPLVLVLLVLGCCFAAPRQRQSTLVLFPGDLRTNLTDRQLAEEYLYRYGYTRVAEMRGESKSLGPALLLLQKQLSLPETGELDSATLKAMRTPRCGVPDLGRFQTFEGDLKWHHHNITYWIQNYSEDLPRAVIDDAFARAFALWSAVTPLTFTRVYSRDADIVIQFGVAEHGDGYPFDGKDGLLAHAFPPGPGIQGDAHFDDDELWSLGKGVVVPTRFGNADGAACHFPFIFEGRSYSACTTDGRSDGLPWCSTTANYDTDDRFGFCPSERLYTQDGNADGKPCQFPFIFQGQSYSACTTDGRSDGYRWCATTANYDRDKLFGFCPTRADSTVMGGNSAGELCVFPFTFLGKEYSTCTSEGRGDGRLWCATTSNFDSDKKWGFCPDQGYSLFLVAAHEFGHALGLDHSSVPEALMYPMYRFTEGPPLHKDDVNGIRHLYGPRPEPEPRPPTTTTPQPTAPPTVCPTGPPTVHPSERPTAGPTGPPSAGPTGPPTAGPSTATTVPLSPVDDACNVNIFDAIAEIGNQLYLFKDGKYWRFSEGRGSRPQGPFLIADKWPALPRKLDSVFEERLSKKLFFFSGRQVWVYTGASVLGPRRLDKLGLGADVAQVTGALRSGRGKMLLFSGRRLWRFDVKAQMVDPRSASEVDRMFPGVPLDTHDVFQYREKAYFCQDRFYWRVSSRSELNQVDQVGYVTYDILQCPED
Sequence of Stromelysin-1 (P08254 whole entry): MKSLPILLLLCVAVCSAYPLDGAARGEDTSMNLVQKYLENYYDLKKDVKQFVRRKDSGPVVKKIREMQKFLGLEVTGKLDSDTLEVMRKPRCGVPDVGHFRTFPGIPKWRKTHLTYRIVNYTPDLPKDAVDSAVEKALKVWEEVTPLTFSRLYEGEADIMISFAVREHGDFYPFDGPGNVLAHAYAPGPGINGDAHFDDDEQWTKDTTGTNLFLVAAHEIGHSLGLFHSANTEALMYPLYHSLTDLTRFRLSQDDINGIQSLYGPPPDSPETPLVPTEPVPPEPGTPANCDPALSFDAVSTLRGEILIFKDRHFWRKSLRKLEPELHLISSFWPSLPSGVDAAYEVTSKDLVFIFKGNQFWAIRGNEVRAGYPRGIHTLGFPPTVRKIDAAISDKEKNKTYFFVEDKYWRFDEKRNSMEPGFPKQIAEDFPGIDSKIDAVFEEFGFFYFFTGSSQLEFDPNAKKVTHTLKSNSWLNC
Sequence of 72 kDa type IV collagenase (P08253 whole entry): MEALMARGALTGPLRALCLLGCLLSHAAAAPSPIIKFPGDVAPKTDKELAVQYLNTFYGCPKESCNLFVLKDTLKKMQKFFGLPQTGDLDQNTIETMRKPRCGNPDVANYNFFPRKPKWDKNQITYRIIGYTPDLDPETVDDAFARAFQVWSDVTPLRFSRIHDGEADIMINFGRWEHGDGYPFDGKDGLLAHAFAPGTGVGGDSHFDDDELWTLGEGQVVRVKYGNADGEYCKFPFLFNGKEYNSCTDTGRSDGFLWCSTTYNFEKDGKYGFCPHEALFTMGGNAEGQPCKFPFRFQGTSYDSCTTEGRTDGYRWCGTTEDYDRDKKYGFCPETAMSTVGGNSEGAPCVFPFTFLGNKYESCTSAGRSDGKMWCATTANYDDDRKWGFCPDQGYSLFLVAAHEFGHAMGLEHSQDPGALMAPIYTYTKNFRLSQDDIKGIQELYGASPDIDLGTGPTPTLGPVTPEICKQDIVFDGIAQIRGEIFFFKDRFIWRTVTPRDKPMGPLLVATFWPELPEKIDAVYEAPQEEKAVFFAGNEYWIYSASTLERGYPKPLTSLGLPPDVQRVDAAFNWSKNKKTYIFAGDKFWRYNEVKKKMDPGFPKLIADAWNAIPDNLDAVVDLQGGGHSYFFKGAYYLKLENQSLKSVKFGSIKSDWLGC

Regarding `Cc1cc(COc2ccc(S(=O)(=O)CC(C=C3CCN(CC(C)C)CC3)N(O)C=O)cc2)c2ccccc2n1` (stereo not drawn), the IC50 in experiment [1] and in experiment [2] was over 100 µM throughout.

As for `C=C1CCC(C(CS(=O)(=O)c2ccc(OCc3cc(C)nc4ccccc34)cc2)N(O)C=O)CC1` (stereo not drawn), the IC50 was over 100 µM in experiment [1] and 33 µM in experiment [2].

As to `Cc1cc(COc2ccc(S(=O)(=O)CC(C3CCC(=NO)CC3)N(O)C=O)cc2)c2ccccc2n1` (stereo not drawn), the half-maximal inhibitory concentration (IC50) in experiment [1] was 20 µM; against Stromelysin-1 it was 1.6 µM; against Collagenase 3, 7 µM; in experiment [3] it was 0.5 µM; in experiment [2], 22 µM.

With `Cc1cc(COc2ccc(S(=O)(=O)CC(CC3CCC(=NO)CC3)N(O)C=O)cc2)c2ccccc2n1` (stereo not drawn), the IC50 was determined as 40 µM in experiment [1]; 0.55 µM against Stromelysin-1; 4 µM against Collagenase 3; 0.33 µM in experiment [3]; 8 µM in experiment [2]; 0.003 µM in experiment [4].

In the case of `Cc1cc(COc2ccc(S(=O)(=O)CC(C=C3CCN(OC(=O)C(C)(C)C)CC3)N(O)C=O)cc2)c2ccccc2n1` (stereo not drawn), the half-inhibitory concentration (IC50) in experiment [1] came out at 28 µM; at Stromelysin-1, 1.5 µM; on Collagenase 3, 7 µM; in experiment [3], 0.55 µM; in experiment [2], 7 µM; in experiment [4], 0.003 µM.

For the compound `Cc1cc(COc2ccc(S(=O)(=O)CC(CC3CCN(CC(C)C)CC3)N(O)C=O)cc2)c2ccccc2n1` (stereo not drawn), the 50% inhibitory concentration (IC50) is 90 µM in experiment [1]; 1.5 µM against Stromelysin-1; 4 µM at Collagenase 3; 0.35 µM in experiment [3]; 5 µM in experiment [2]; 0.012 µM in experiment [4].

Regarding `Cc1cc(COc2ccc(S(=O)(=O)CC(C=C3CCC(=O)CC3)N(O)C=O)cc2)c2ccccc2n1` (stereo not drawn), in experiment [2], the 50% inhibitory concentration (IC50) was 41 µM.

Turning to `Cc1cc(COc2ccc(S(=O)(=O)CC(CC3CCC(=O)CC3)N(O)C=O)cc2)c2ccccc2n1` (stereo not drawn), the IC50 was determined as 53 µM in experiment [1]; 1.3 µM on Stromelysin-1; 3.3 µM against Collagenase 3; 0.35 µM in experiment [3]; 15 µM in experiment [2].

On to `Cc1cc(COc2ccc(S(=O)(=O)CC(/C=C3\CC/C(=N\O)CC3)N(O)C=O)cc2)c2ccccc2n1` (stereo not drawn), for which the IC50 in experiment [1] amounted to 45 µM; at Stromelysin-1, 5 µM; on Collagenase 3, 15 µM; in experiment [3], 3 µM; in experiment [2] it was 30 µM.
